Experimental findings from ChEMBL document CHEMBL1132672, “Substituted 7H-pyrido[4,3-c]carbazoles with potent anti-HIV activity” (Bioorg Med Chem Lett, 1999) are described below.

Converted amounts (≈) assume the structure as drawn.

Data set [1] relates to H9. As to the kind of experiment: Inhibitory concentration required to inhibit uninfected H9 lymphocytic cell growth by 50%. Type of data set: functional, cell-based. The following applies: Homo sapiens.
Data set [2] is described as follows: Therapeutic index(TI) was evaluated (IC50/EC50). The following applies: read-out: TI.
In data set [3] the test system is H9. As to the kind of experiment: Inhibitory concentration required to inhibit HIV replication in H9 lymphocytes growth by 50%. Type of data set: functional, cell-based. The conditions noted are these: Homo sapiens.

Consider `COc1cc2c(c3ccccc3n2C)c2c(NCCN(C)C)nccc12`, for which, in the data set with H9 [1], inhibition was half-maximal at 0.23 µg/mL (≈ 0.66 µM) (IC50). The selectivity ratio in data set [2] was determined as 8.9. In the data set with H9 [3], a half-maximal response (EC50) required 0.026 µg/mL (≈ 0.0746 µM).

`COc1cc2c(c3ccccc3n2C)c2c(NCCCO)nccc12`: the IC50 (usually the concentration that gives 50% inhibition) in the data set on H9 [1] was found to be 0.15 µg/mL (≈ 0.447 µM). For the same compound, the selectivity ratio in data set [2] was 153. For the same compound, in the data set with H9 [3], a half-maximal response (EC50) required 0.001 µg/mL (≈ 0.00298 µM).

The compound `COc1cc2c(c3ccccc3n2C)c2c(NCCN)nccc12` registered a 50% inhibitory concentration (IC50) with H9 [1] of 0.23 µg/mL (≈ 0.718 µM). Also, the selectivity ratio in data set [2] amounted to 10.6. Also, the EC50 – broadly, the concentration at which the effect is half-maximal – with H9 [3] was 0.022 µg/mL (≈ 0.0687 µM).

For the compound `COc1cc2c(c3ccccc3n2C)c2c(Cl)nccc12`, the IC50 in the data set with H9 [1] amounted to 26 µg/mL (≈ 87.6 µM). For the same compound, the selectivity ratio in data set [2] was found to be 136. This compound displayed an EC50 in the data set on H9 [3] of 0.19 µg/mL (≈ 0.64 µM).

In the data set with H9 [1], `COc1cc2c(c3cnccc13)c1ccccc1n2C` displayed an IC50 of 2.7 µg/mL (≈ 10.3 µM). Further, the selectivity ratio in data set [2] amounted to 503. Besides, the EC50 in the data set on H9 [3] is 0.0054 µg/mL (≈ 0.0206 µM).

`COc1cc2c(c3ccccc3n2C)c2c(NCCN3CCCCC3)nccc12` showed an IC50 in the data set on H9 [1] of 0.24 µg/mL (≈ 0.618 µM). For the same compound, the selectivity ratio in data set [2] stood at 47.9. The compound further had an EC50 in the data set on H9 [3] of 0.005 µg/mL (≈ 0.0129 µM).

With `COc1cc2c(c3cc(O)ccc3n2C)c2c(Cl)nccc12`, in the data set with H9 [1], the 50% inhibitory concentration (IC50) is 5 µg/mL (≈ 16 µM). Besides, the selectivity ratio in data set [2] came to 3.6. Besides, the midpoint of the response in the data set with H9 [3], the EC50, lay at 1.4 µg/mL (≈ 4.48 µM).
